Results reported in patent US20260083851A1 (AVILAR THERAPEUTICS, INC., priority 2022, published 2026).
Like-named read-outs stand apart in the source and are kept apart here.

Legend:
TNF = TNF (Homo sapiens, UniProt P01375); test: TNF FP Assay; type: binding; conditions: TNF 20 nM, 25° C., 2 hours
Protocol: TNF (20 nM) and test compound in 47 mM HEPES pH 6.5, 47 mM NaCl, 0.9 mM EDTA, 0.007% Triton X-100 were incubated at 25° C. for 2 hours. Fluorescence data was read with an Envision and plotted versus Compound concentration and fit to a single-site binding model.

[1] = molecular target: T1, ASGP receptor (biotinylated ASGPR) (Homo sapiens, UniProt P07306); type: binding; conditions: SPR; Table 2; read-out: ASGPR SPR Binding KD
T1 construct: biotin (biotinylated)
T1 sequence (P07306 1-291): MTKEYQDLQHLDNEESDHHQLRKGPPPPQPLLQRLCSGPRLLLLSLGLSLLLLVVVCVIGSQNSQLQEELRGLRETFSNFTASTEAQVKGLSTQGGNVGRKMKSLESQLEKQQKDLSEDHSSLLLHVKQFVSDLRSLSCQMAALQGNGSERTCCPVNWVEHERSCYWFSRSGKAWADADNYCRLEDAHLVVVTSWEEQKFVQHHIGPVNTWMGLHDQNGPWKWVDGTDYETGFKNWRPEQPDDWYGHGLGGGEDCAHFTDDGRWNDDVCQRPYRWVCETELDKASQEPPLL

[2] = molecular target: T2, ASGPR receptor on HepG2 cells (ternary complex with AF488-labeled antibody) (Homo sapiens, UniProt P07306); test: Ternary complex formation assay (flow cytometry, cell-associated AF488 fluorescence); type: cell-based; conditions: 100 nM AF488-labeled antibody, 1 hour at 4° C.
T2 construct: host or cells: HepG2
T2 sequence (P07306 1-291): T1 sequence (P07306 1-291)
T2 sequence (P07307 1-311 partner): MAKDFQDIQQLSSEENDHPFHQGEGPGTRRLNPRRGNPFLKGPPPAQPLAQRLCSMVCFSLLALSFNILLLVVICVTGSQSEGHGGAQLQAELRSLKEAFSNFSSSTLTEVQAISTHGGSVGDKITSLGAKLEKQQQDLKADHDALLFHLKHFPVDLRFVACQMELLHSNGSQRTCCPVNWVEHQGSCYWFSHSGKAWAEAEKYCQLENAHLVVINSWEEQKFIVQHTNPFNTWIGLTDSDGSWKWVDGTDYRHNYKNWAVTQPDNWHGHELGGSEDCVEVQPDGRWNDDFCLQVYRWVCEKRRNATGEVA

IgG = IgG SPR binding
HepG2 cells = test: Cellular uptake assay (high-content imaging); type: cell-based, human; conditions: Homo sapiens, 100 nM AF488-labeled antibody, 6 hours at 37° C.
ASGPR = molecular target: T3, ASGPR (Homo sapiens, UniProt P07306); test: ASGPR SPR binding
T3 construct: biotin (biotinylated)
T3 sequence (P07306 1-291): T1 sequence (P07306 1-291)

TNF, sequence (P01375 77-233 limits assumed): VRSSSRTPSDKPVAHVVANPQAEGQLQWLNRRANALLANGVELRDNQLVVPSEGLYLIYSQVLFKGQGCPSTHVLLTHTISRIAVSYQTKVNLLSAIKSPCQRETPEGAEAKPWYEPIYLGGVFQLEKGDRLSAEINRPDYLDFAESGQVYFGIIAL

Row | IC50 (TNF; Table 2) | Kd [1] | SMILES | other results
1 | 100 to 500 nM | < 100 nM | CC1(C)C(=O)c2ccc(-c3cnc(N4CCN5C(=O)N(CCCNC(=O)COc6ccc(CN7CCN(C[C@H]8OC[C@H](Nc9cncc(C(F)(F)F)n9)[C@@H](O)[C@H]8O)CC7)cc6)C[C@@H]5C4)nc3)nc2N1Cc1cccnc1C#N [compound 12] | –
2 | 100 to 500 nM | < 100 nM | CC1(C)C(=O)c2ccc(-c3cnc(N4CCN5C(=O)N(CCCNC(=O)CNC[C@H]6OC[C@H](Nc7cncc(C(F)(F)F)n7)[C@@H](O)[C@H]6O)C[C@@H]5C4)nc3)nc2N1Cc1cccnc1C#N [compound 14] | –
3 | 500 to 1000 nM | < 100 nM | CC1(C)C(=O)c2ccc(-c3cnc(N4CCN5C(=O)N(CCOCCNC(=O)[C@H]6CC[C@H](C(=O)NC[C@H]7OC[C@H](Nc8cncc(C(F)(F)F)n8)[C@@H](O)[C@H]7O)CC6)C[C@@H]5C4)nc3)nc2N1Cc1cccnc1C#N [compound 17] | –
4 | > 1000 nM | < 100 nM | CC1(C)C(=O)c2ccc(-c3cnc(N4CCN5C(=O)N(CCCNC(=O)[C@H]6CC[C@H](C(=O)NC[C@H]7OC[C@H](Nc8cncc(C(F)(F)F)n8)[C@@H](O)[C@H]7O)CC6)C[C@@H]5C4)nc3)nc2N1Cc1cccnc1C#N [compound 15] | –
5 | 100 to 500 nM | < 100 nM | CC1(C)C(=O)c2ccc(-c3cnc(N4CCN5C(=O)N(CCCNC(=O)CCN6CCN(CC(=O)NC[C@H]7OC[C@H](Nc8cncc(C(F)(F)F)n8)[C@@H](O)[C@H]7O)CC6)C[C@@H]5C4)nc3)nc2N1Cc1cccnc1C#N [compound 11] | –
6 | > 1000 nM | < 100 nM | CC1(C)C(=O)c2ccc(-c3cnc(N4CCN5C(=O)N(CCOCCNC(=O)CNC[C@H]6OC[C@H](Nc7cncc(C(F)(F)F)n7)[C@@H](O)[C@H]6O)C[C@@H]5C4)nc3)nc2N1Cc1cccnc1C#N [compound 10] | –
7 | > 1000 nM | < 100 nM | CC1(C)C(=O)c2ccc(-c3cnc(N4CCN5C(=O)N(CCCNC(=O)COc6cccc(CC(=O)NC[C@H]7OC[C@H](Nc8cncc(C(F)(F)F)n8)[C@@H](O)[C@H]7O)c6)C[C@@H]5C4)nc3)nc2N1Cc1cccnc1C#N [compound 16] | –
8 | > 1000 nM | – | CC1(C)C(=O)c2ccc(-c3cnc(N4CCN5C(=O)N(CCOCCNC(=O)c6ccc(C(=O)NC[C@H]7OC[C@H](Nc8cncc(C(F)(F)F)n8)[C@@H](O)[C@H]7O)cc6)C[C@@H]5C4)nc3)nc2N1Cc1cccnc1C#N [compound 18] | –
9 | > 1000 nM | < 100 nM | CC1(C)C(=O)c2ccc(-c3cnc(N4CCN5C(=O)N(CCCNC(=O)c6ccc(C(=O)NC[C@H]7OC[C@H](Nc8cncc(C(F)(F)F)n8)[C@@H](O)[C@H]7O)cc6)C[C@@H]5C4)nc3)nc2N1Cc1cccnc1C#N [compound 13] | –
10 | > 1000 nM | < 100 nM | O=C(CCOCC(COCCC(=O)NCCOCCOCCOCCOC[C@H]1OC[C@H](Nc2cncc(C(F)(F)F)n2)[C@@H](O)[C@H]1O)NC(=O)COCCOCCOCC(=O)N1CCN(Cc2ccc(-c3c[nH]c4ccncc34)c(OCCc3ccc(-c4cccc5ccncc45)cc3)c2)CC1)NCCOCCOCCOCCOC[C@H]1OC[C@H](Nc2cncc(C(F)(F)F)n2)[C@@H](O)[C@H]1O [compound 9] | –

The remaining lines, values behind:

Row | SMILES | IC50 (TNF; Table 2) | Kd [1] | other results
11 | O=C(CNC[C@H]1OC[C@H](Nc2cncc(C(F)(F)F)n2)[C@@H](O)[C@H]1O)NCCOCCOCCOCc1ccc(-c2cccc3ccncc23)c(OCCc2ccc(-c3cccc4ccncc34)cc2)c1 [compound 6] | 100 to 500 nM | – | –
12 | O=C(CCOCC(COCCC(=O)NCCOCCOCCOCCOC[C@H]1OC[C@H](Nc2cncc(C(F)(F)F)n2)[C@@H](O)[C@H]1O)NCC(=O)N1CCN(Cc2ccc(-c3c[nH]c4ccncc34)c(OCCc3ccc(-c4cccc5ccncc45)cc3)c2)CC1)NCCOCCOCCOCCOC[C@H]1OC[C@H](Nc2cncc(C(F)(F)F)n2)[C@@H](O)[C@H]1O [compound 2] | > 1000 nM | < 100 nM | –
13 | O=C(CCOCC(COCCC(=O)NCCOCCOCCOCCOC[C@H]1OC[C@H](Nc2cncc(C(F)(F)F)n2)[C@@H](O)[C@H]1O)NC(=O)COCCOCCOCCOCCOCC(=O)N1CCN(Cc2ccc(-c3c[nH]c4ccncc34)c(OCCc3ccc(-c4cccc5ccncc45)cc3)c2)CC1)NCCOCCOCCOCCOC[C@H]1OC[C@H](Nc2cncc(C(F)(F)F)n2)[C@@H](O)[C@H]1O [compound 5] | – | – | IC50 (TNF; Table 2, numeric bound): > 136 nM
14 | O=C(COc1ccc(CN2CCN(C[C@H]3OC[C@H](Nc4cncc(C(F)(F)F)n4)[C@@H](O)[C@H]3O)CC2)cc1)N1CCN(Cc2ccc(-c3c[nH]c4ccncc34)c(OCCc3ccc(-c4cccc5ccncc45)cc3)c2)CC1 [compound 4] | – | < 100 nM | IC50 (TNF; Table 2, numeric bound): > 112 nM
15 | O=C(CC(=O)NC[C@H]1OC[C@H](Nc2cncc(C(F)(F)F)n2)[C@@H](O)[C@H]1O)NCCOCCOCCOCc1ccc(-c2cccc3ccncc23)c(OCCc2ccc(-c3cccc4ccncc34)cc2)c1 [compound 1] | 100 to 500 nM | < 100 nM | –
16 | O=C(COCCOCC(=O)N1CCN(Cc2ccc(-c3c[nH]c4ccncc34)c(OCCc3ccc(-c4cccc5ccncc45)cc3)c2)CC1)NC[C@H]1OC[C@H](Nc2cncc(C(F)(F)F)n2)[C@@H](O)[C@H]1O [compound 3] | < 100 nM | < 100 nM | –
17 | O=C(NC[C@H]1OC[C@H](Nc2cncc(C(F)(F)F)n2)[C@@H](O)[C@H]1O)N1CCN(Cc2ccc(-c3c[nH]c4ccncc34)c(OCCc3ccc(-c4cccc5ccncc45)cc3)c2)CC1 [compound 8] | > 1000 nM | < 100 nM | –
18 | CC(C)C[C@@H]1NC(=O)[C@H](Cc2cnc[nH]2)NC(=O)[C@H](Cc2c[nH]c3ccccc23)NC(=O)[C@H](C)NC(=O)[C@@H]2CSSC[C@H](NC(=O)[C@H](Cc3c[nH]c4ccccc34)NC(=O)[C@H](C(C)C)NC(=O)[C@H](CC(C)C)NC(=O)[C@H](CCC(=O)O)NC(=O)CNC1=O)C(=O)N[C@@H]([C@@H](C)O)C(=O)N1CCC[C@@H]1C(=O)N1C[C@H](NC(=O)CNC(COCCC(=O)NCCOCCOCCOCCOC[C@H]3OC[C@H](Nc4cncc(C(F)(F)F)n4)[C@@H](O)[C@H]3O)COCCC(=O)NCCOCCOCCOCCOC[C@H]3OC[C@H](Nc4cncc(C(F)(F)F)n4)[C@@H](O)[C@H]3O)C[C@H]1C(=O)N[C@@H](CC(=O)O)C(=O)N2 [compound 97] | – | – | EC50 ([2]; the 25th table, class symbols, read-out: TCF EC50): < 100 nM; Kd (IgG; second table, read-out: IgG KD): < 100 nM; EC50 (HepG2 cells; the 25th table, class symbols, read-out: Uptake EC50): < 100 nM; Kd (ASGPR; second table, read-out: ASGPR KD): < 100 nM
19 | O=C(COCCOCCOCCOCCOCC(=O)N1CCN(Cc2ccc(-c3c[nH]c4ccncc34)c(OCCc3ccc(-c4cccc5ccncc45)cc3)c2)CC1)NC[C@H]1OC[C@H](Nc2cncc(C(F)(F)F)n2)[C@@H](O)[C@H]1O [compound 7] | < 100 nM | < 100 nM | –
20 | CC(C)C[C@@H]1NC(=O)[C@H](Cc2cnc[nH]2)NC(=O)[C@H](Cc2c[nH]c3ccccc23)NC(=O)[C@H](C)NC(=O)[C@@H]2CSSC[C@H](NC(=O)[C@H](Cc3c[nH]c4ccccc34)NC(=O)[C@H](C(C)C)NC(=O)[C@H](CC(C)C)NC(=O)[C@H](CCC(=O)O)NC(=O)CNC1=O)C(=O)N[C@@H]([C@@H](C)O)C(=O)N1CCC[C@@H]1C(=O)N1C[C@H](NC(=O)c3ccc(N4CCC(CN5CCN(C[C@H]6OC[C@H](Nc7ccnc(C(F)(F)F)n7)[C@@H](O)[C@H]6O)CC5)CC4)cc3)C[C@H]1C(=O)N[C@@H](CC(=O)O)C(=O)N2 [compound 32] | – | – | EC50 ([2]; Table 3, class symbols, read-out: Ternary Complex EC50): < 100 nM; Kd (IgG; Table 3, read-out: IgG SPR Binding KD): < 100 nM; EC50 (HepG2 cells; Table 3, class symbols, read-out: Uptake Assay (EC50)): < 100 nM; Kd (ASGPR; Table 3, read-out: ASGPR SPR Binding KD): < 100 nM
